Entries after “also recorded” stand apart in the source; their conditions may differ.
Assays:
HCT116 proteome = experiment: Global proteomic identification of braftide-regulated proteins (LC–MS/MS) in HCT116; assay type: cell-based, human; settings: HCT116, 10 μM braftide, 1 h
Experimental: HCT116 cells were treated in the absence and presence of 10 μM TAT–braftide, 1 h, 37 °C. Cell pellets were harvested in PBS and cryopreserved. Samples were sent to be lysed and identified through MS in three biological replicates (LC–MS/MS; The Wistar Institute). Data were processed through the previously reported GO analysis via the Panther database ([42]) and plotted on Origin (OriginLab Corporation). For the volcano plot, the cutoff for the presented data is p = 0.01 (∗∗), q value <0.05 (Student's t test value adjusted for multiple comparisons using the Benjamini–Hochberg false discovery rate correction) and detected in at least two or more replicates. A total of 5405 proteins were identified, emphasizing a twofold change in NeonGreen and in red. Source data are available in the supporting information files.

BRAF–CRAF protein levels = settings: cited from earlier work
From the text: RAF family members are known clients of the HSP90–CDC37 chaperone complex and rely on their interaction with the CDC37–HSP90 chaperone complex to maintain basal protein stability ([4]). […] Although the HSP90 and CDC37 interface is vast and dynamic ([7]), the αC helix–β4 loop is a well-defined structural motif conserved across RAF and other kinases ([29]). The RAF DIF, being ...

CDC37–HSP90 interaction = experiment: Co-IP of CDC37-FLAG with HSP90 in HEK293; assay type: cell-based, human (HEK293); settings: HEK293, 25 μM braftide, bortezomib pretreatment
Experimental: HEK293 cells were seeded at 1(10)^6 cells per well for a 6-well plate or 5(10)^6 for 10 cm dishes and incubated until 40% to 60% confluency. Transfection was carried out using a 1:3 DNA:PEI-MAX ratio in OPTI-MEM and allowed 48 h for protein expression. For peptide assays, 48 h post-transfection, cells were treated with TAT–braftide carried in OPTI-MEM at indicated concentrations. Cells were harvested in cold PBS. Harvested cells were lysed in 4% SDS or modified radioimmunoprecipitation assay (RIPA) for co-IP experiments. Quantification of total protein by the bicinchoninic acid assay was carried out according to the manufacturer's protocols (Pierce; catalog no.: 23225).
Transfected HEK293 cells were treated with the indicated treatments and harvested in cold PBS. […] Samples were analyzed via immunoblot.
Western blot band densities were quantified with ImageJ software (National Institutes of Health) and normalized to the indicated loading control. Statistical significance was determined through one-/two-way ANOVA, where indicated, followed by Tukey's honest significant difference post hoc test with corresponding p values (∗p < 0.05, ∗∗p < 0.002, ∗∗∗p < 0.0002, and ∗∗∗∗p < 0.0001). […]

HCT116 cells = experiment: Annexin V apoptosis assay, HCT116; assay type: cell-based; settings: for apoptotic cell death, braftide + 17-AAG combination versus 17-AAG monotherapy: HCT116, Annexin V, n=3, Fig. S12, B and C
Experimental: HEK293 cells and HCT116 cells were treated with either control or braftide at the indicated concentrations for 4 h. After treatment, both the floating and adherent cell populations were collected and adjusted with PBS (final concentration: 1 × 10^5 cells/ml). The cells were then mixed with the Annexin V (Cytex; FCCH100108) reagent in a 5:1 ratio (100 μl of cells mixed with 20 μl of Annexin V reagent) and allowed to stain in the dark, at room temperature for 15 min. The cells were then analyzed on a Guava Muse Cell Analyzer (Millipore).

CDC37–CRAF interaction = experiment: Co-IP of CDC37-FLAG with CRAF-HA in HCT116; assay type: cell-based; settings: HCT116, 5 µM braftide, three biological replicates

For “GRKKRRQRRRPQ-miniPEG-TRHVNILLFM [Braftide]”, the “FoldChange Treat/NoTreat, COA3” value (HCT116 proteome; protein COA3 (Q9Y2R0), q-value 1.02E-05, LFQ, missing values imputed) was 76.35, the “FoldChange Treat/NoTreat, HPX” value (HCT116 proteome; protein HPX (P02790), q-value 0.000814707, LFQ) was 99.13 and the “FoldChange Treat/NoTreat, PDK2” value (HCT116 proteome; protein PDK2 (Q15119), q-value 1.74E-05, LFQ, missing values imputed) was 40.24. The “FoldChange Treat/NoTreat, RNF169” value (HCT116 proteome; protein RNF169 (Q8NCN4), q-value 4.15E-05, LFQ, missing values imputed) was 48.52, the “FoldChange Treat/NoTreat, TOMM6” value (HCT116 proteome; protein TOMM6 (Q96B49), q-value 1.36E-06, LFQ, missing values imputed) was 129.15 and the “degradation of BRAF–CRAF protein levels” value (BRAF–CRAF protein levels) was “induces the degradation of BRAF–CRAF protein levels through the ubiquitin-26s proteasomal degradation system”. For the same substance, the “CDC37–HSP90 interaction” value (CDC37–HSP90 interaction) was “maintaining the CDC37–HSP90 interaction”, the “apoptosis (Annexin V), HCT116” value (HCT116 cells; 0, 5, 10, 25, 50, 75, and 100 μM braftide, 4 h, n = 3, listed as braftide) was “triggered dose-dependent apoptosis; also recorded: HCT116 cells showed higher sensitivity to braftide compared with HEK293” and the “apoptotic cell death, braftide + 17-AAG combination versus 17-AAG monotherapy” value (HCT116 cells) was “synergizes with 17-AAG in HCT116 cells to trigger cell death at lower treatment concentrations”. For the same substance, the “apoptotic cell death, braftide + 17-AAG combination versus 17-AAG monotherapy” value (HCT116 cells; listed as braftide) was “significant increase in apoptotic cell death with the combination therapy compared with monotherapy”, the “CDC37–CRAF interaction” value (CDC37–CRAF interaction) was “decreases its association with coimmunoprecipitated BRAF-V5 and CRAF-HA” and the “CDC37–CRAF interaction” value (CDC37–CRAF interaction; listed as braftide) was “reduced the CDC37–RAF interaction at lower doses than in HEK293 cells”.

Source: PMC12830207, “Targeting the protein–protein interaction between the CDC37 cochaperone and client kinases by an allosteric RAF dimer breaker” (The Journal of Biological Chemistry, 2025)
